According to patent US5968910A, “Compositions containing two or three inhibitors of different HIV reverse transcriptases” (priority 1994, dated 1999):
In brackets after ≈: the same amount, converted by molar mass. Like-named read-outs stand apart in the source and are kept apart here.

What was measured:
[1] = system: HIV-1(IIIB) (WT); assay: microbe, parasite or virus in culture; type: cell-based; conditions: Human immunodeficiency virus 1, IIIB, CCRF-CEM
In short: (§1)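 Syncytium formation read out after 4 days at 37° C. Cultures: CEM cells, 250,000/ml, infected at 100 50% cell culture infective doses/ml and added to compound dilutions.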

[2] = system: HIV-1/I(0.1) 103-Asn; assay: Sensitivity of mutant HIV-1 strain in CEM cell cultures; type: cell-based; conditions: Human immunodeficiency virus 1, CCRF-CEM; Table 5; read-out: EC50
In short: as §1

[3] = system: HIV-1/II(0.1) 100-Ile; assay: as above; type: cell-based; conditions: Human immunodeficiency virus 1, CCRF-CEM; Table 5; read-out: EC50
In short: as §1

[4] = system: HIV-1/III(0.1) 103-Asn; assay: as above; type: cell-based; conditions: Human immunodeficiency virus 1, CCRF-CEM; Table 5; read-out: EC50
In short: as §1

[5] = system: HIV-1/IV(0.1) 103-Thr; assay: as above; type: cell-based; conditions: Human immunodeficiency virus 1, CCRF-CEM; Table 5; read-out: EC50
In short: as §1

[6] = system: HIV-1/Nev (106-Ala); assay: as above; type: cell-based; conditions: Human immunodeficiency virus 1, CCRF-CEM; CEM cells, Table 1; read-out: 50% Effective Concentration
In short: as §1

[7] = system: HIV-1/Pyr (181-Cys); assay: as above; type: cell-based; conditions: Human immunodeficiency virus 1, CCRF-CEM; CEM cells, Table 1; read-out: 50% Effective Concentration
In short: as §1

[8] = system: HIV-1/TIBO R82150 (100-Ile); assay: as above; type: cell-based; conditions: Human immunodeficiency virus 1, CCRF-CEM; CEM cells, Table 1; read-out: 50% Effective Concentration
In short: as §1

[9] = system: HIV-1/TIBO R82913 (103-Asn); assay: as above; type: cell-based; conditions: Human immunodeficiency virus 1, CCRF-CEM; CEM cells, Table 1; read-out: 50% Effective Concentration
In short: as §1

[10] = system: HIV-1/TSAO-m^3 T (138-Lys); assay: as above; type: cell-based; conditions: Human immunodeficiency virus 1, CCRF-CEM; CEM cells, Table 1; read-out: 50% Effective Concentration
In short: as §1

[11] = system: HIV-1/V(0.1) 101-Ile + 141-Glu; assay: as above; type: cell-based; conditions: Human immunodeficiency virus 1, CCRF-CEM; Table 5; read-out: EC50
In short: as §1

[12] = system: HIV-1/V(0.5) 103-Asn; assay: as above; type: cell-based; conditions: Human immunodeficiency virus 1, CCRF-CEM; Table 5; read-out: EC50
In short: as §1

[13] = molecular target: HIV-1 RT (WT) (Human immunodeficiency virus type 1 group M subtype B, UniProt P03366); assay: biochemical
In short: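 Recombinant HIV-1 RT incubated 30 min at 37° C with poly(C).oligo(dG) (0.1 mM) and [³H]dGTP (2.95 μM) in Tris pH 7.8 with 5 mM MgCl2, 150 mM KCl, DTT, glutathione, Triton X-100; 5-fold compound dilutions. Acid-insoluble radioactivity counted after TCA/pyrophosphate precipitation.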

[14] = system: HIV-1(IIIB); assay: Knock-out concentrations: breakthrough of HIV-1(IIIB)-induced cytopathicity in CEM cell cultures; type: cell-based; conditions: for activity at 0.1 µg/mL / activity at 0.5 µg/mL / activity at 2.5 µg/mL: Human immunodeficiency virus 1, IIIB, CCRF-CEM, read-out: HIV-1-induced cytopathicity in cell culture; for activity at 0.1 µg/mL: 0.1 μg/ml; for activity at 0.5 µg/mL: 0.5 μg/ml; for activity at 2.5 µg/mL: 2.5 μg/ml
In short: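 CEM cells in RPMI 1640 with 10% FBS infected with HIV-1(IIIB) at ~1000× CCID50, subcultured every 3–4 days into fresh uninfected cells with drug held constant for 10 subcultivations (35 days), then ≥5 drug-free passages. Breakthrough scored by syncytium formation. Combinations used the two lowest single-drug starting concentrations.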

[15] = 936 h, day 39 post infection, compound absent from day 35
[16] = 1008 h, day 42 post infection, compound absent from day 35
[17] = 1104 h, day 46 post infection, compound absent from day 35
[18] = 1176 h, day 49 post infection, compound absent from day 35
[19] = 1272 h, day 53 post infection, compound absent from day 35

Cc1occc1C(=S)Nc1ccc(Cl)c(C(=O)OC2CCCCC2)c1 [Compound III]
EC50 ([1]; CEM cells, Table 1, read-out: 50% Effective Concentration): 0.004 µg/mL (≈ 0.0106 µM)
EC50 ([1]; HIV-1 (III8), Table 5, read-out: EC50): 0.004 µg/mL (≈ 0.0106 µM)
IC50 ([1]; range stated for Compounds I-V together, read-out: 50% inhibitory concentration, HIV-1(IIIB) replication in CEM cells): 0.004 to 0.05 µg/mL (≈ 0.0106 to 0.132 µM)
EC50 [2]: 0.3 µg/mL (≈ 0.794 µM)
EC50 [3]: 0.87 µg/mL (≈ 2.3 µM)
EC50 [4]: 0.16 µg/mL (≈ 0.423 µM)
EC50 [5]: 1.1 µg/mL (≈ 2.91 µM)
EC50 [6]: 0.057 µg/mL (≈ 0.151 µM)
EC50 [7]: 0.07 µg/mL (≈ 0.185 µM)
EC50 [8]: 0.17 µg/mL (≈ 0.45 µM)
EC50 [9]: 0.7 µg/mL (≈ 1.85 µM)
EC50 [10]: 0.035 µg/mL (≈ 0.0926 µM)
EC50 [11]: 0.05 µg/mL (≈ 0.132 µM)
EC50 [12]: 0.85 µg/mL (≈ 2.25 µM)
IC50 ([13]; range stated for the compounds together, poly(C).oligo(dG), 2.95 μM [2,8-3H]dGTP, read-out: IC50 on recombinant HIV-1 RT): 47.6 to 204 nM
IC50 ([13]; substrate [2,8-3H]dGTP 2.95 μM, template poly(rC)oligo(dG), read-out: IC50, anti-HIV-1 RT (WT) activity (converted)): 146 nM
prevention of virus breakthrough, fold more efficient than BHAP [14]: at least 5 fold
prevention of virus breakthrough, fold more efficient than nevirapine [14]: ≥ 25 fold
activity at 0.1 µg/mL ([14]; 96 h, day 4 post infection): 0%
activity at 0.5 µg/mL ([14]; 96 h, day 4 post infection): 0%
activity at 2.5 µg/mL ([14]; 96 h, day 4 post infection): 0%
activity at 0.1 µg/mL ([14]; 192 h, day 8 post infection): 0%
activity at 0.5 µg/mL ([14]; 192 h, day 8 post infection): 0%
activity at 2.5 µg/mL ([14]; 192 h, day 8 post infection): 0%
activity at 0.1 µg/mL ([14]; 264 h, day 11 post infection): 0%
activity at 0.5 µg/mL ([14]; 264 h, day 11 post infection): 0%
activity at 2.5 µg/mL ([14]; 264 h, day 11 post infection): 0%
activity at 0.1 µg/mL ([14]; 336 h, day 14 post infection): 6.2%
activity at 0.5 µg/mL ([14]; 336 h, day 14 post infection): 0%
activity at 2.5 µg/mL ([14]; 336 h, day 14 post infection): 0%
activity at 0.1 µg/mL ([14]; 408 h, day 17 post infection): 50%
activity at 0.5 µg/mL ([14]; 408 h, day 17 post infection): 0%
activity at 2.5 µg/mL ([14]; 408 h, day 17 post infection): 0%
activity at 0.1 µg/mL ([14]; 504 h, day 21 post infection): 100%
activity at 0.5 µg/mL ([14]; 504 h, day 21 post infection): 0%
activity at 2.5 µg/mL ([14]; 504 h, day 21 post infection): 0%
activity at 0.1 µg/mL ([14]; 600 h, day 25 post infection): 100%
activity at 0.5 µg/mL ([14]; 600 h, day 25 post infection): 0%
activity at 2.5 µg/mL ([14]; 600 h, day 25 post infection): 0%
activity at 0.1 µg/mL ([14]; 672 h, day 28 post infection): 100%
activity at 0.5 µg/mL ([14]; 672 h, day 28 post infection): 0%
activity at 2.5 µg/mL ([14]; 672 h, day 28 post infection): 0%
activity at 0.1 µg/mL ([14]; 768 h, day 32 post infection): 100%
activity at 0.5 µg/mL ([14]; 768 h, day 32 post infection): 0%
activity at 2.5 µg/mL ([14]; 768 h, day 32 post infection): 0%
activity at 0.1 µg/mL ([14]; 840 h, day 35 post infection): 100%
activity at 0.5 µg/mL ([14]; 840 h, day 35 post infection): 0%
activity at 2.5 µg/mL ([14]; 840 h, day 35 post infection): 0%
activity at 0.1 µg/mL [14, 15]: 100%
activity at 0.5 µg/mL [14, 15]: 0%
activity at 2.5 µg/mL [14, 15]: 0%
activity at 0.1 µg/mL [14, 16]: 100%
activity at 0.5 µg/mL [14, 16]: 0%
activity at 2.5 µg/mL [14, 16]: 0%
activity at 0.1 µg/mL [14, 17]: 100%
activity at 0.5 µg/mL [14, 17]: 0%
activity at 2.5 µg/mL [14, 17]: 0%
activity at 0.1 µg/mL [14, 18]: 100%
activity at 0.5 µg/mL [14, 18]: 0%
activity at 2.5 µg/mL [14, 18]: 0%
activity at 0.1 µg/mL [14, 19]: 100%
activity at 0.5 µg/mL [14, 19]: 0%
activity at 2.5 µg/mL [14, 19]: 0%
concentration at which virus emerged (virus breakthrough) ([14]; tested at 0.1, 0.5 and 2.5 μg/ml, 35 days): 0.1 µg/mL
